Data on one sequence can be found in PMC8667882 (Journal of Enzyme Inhibition and Medicinal Chemistry, 2021).

In this assay the test system is CN (mouse brain extract). The note with it: peptide 25 nM, RII substrate.

For GPHPVIVIT [pep1s], the “effect on CN activity at 25 nM” value is recorded as “minimal effects on CN activity”.
